In article PMC2898572 (Journal of neurochemistry, 2009):
Values joined by “and” are separate entries in the source; they are usually repeats but may differ in a detail not shown here. Equal entries are not always repeated.

Experiments:
[1] = tested on: wild-type and Pept2 null mice; experiment: Hot-plate test; format: in vivo; conditions: for ED50: icv
rat PEPT2 = conditions: read-out: Ki (PEPT2 inhibitor); LLC-PK1 cells stably transfected with rat PEPT2; ref Terada et al. 2000; cited from earlier work
[2] = tested on: opioid peptide transport system; conditions: SK-N-SH cells; ref Thakker et al. 2008; cited from earlier work
PEPT2 = conditions: rat choroid plexus; concentrations 1,000 times in excess; ref Teuscher et al. 2001; cited from earlier work

Molecule | effect on the MPE of L-KTP ([1]; bestatin 160 nmol icv with 4 nmol L-KTP, Pept2 null mice, p=0.2931) | Ki (rat PEPT2) | stimulation of opioid peptide transport system [2] | maximum analgesia ([1]; 100 nmol icv, both genotypes) | duration of response to 100 nmol dose ([1]; 100 nmol icv, both genotypes, 40 min experiment) | ED50 ([1]; Pept2 null mice, response at 5 min, estimate ± standard error) | time of maximum analgesia ([1]; after icv injection, both genotypes) | ED50 ([1]; both genotypes (wild-type and Pept2 null)) | ED50 ([1]; wild-type mice, response at 5 min, estimate ± standard error) | difference in ED50 between genotypes ([1]; wild-type vs Pept2 null) | effect on the uptake of GlySar (PEPT2)
CC(C)C[C@H](NC(=O)[C@@H](O)[C@H](N)Cc1ccccc1)C(=O)O [bestatin] | little effect | 18 µM | – | – | – | – | – | – | – | – | –
L-Tyr-D-Arg [D-KTP] | – | – | little stimulation | 100 % MPE | fully analgesic throughout the 40 min experiment | 9.1 ± 0.8 nmol | 5 min | 9 to 10 nmol | 10.3 nmol and 10.3 ± 1.0 nmol | ~ 10% | no effect
